Values quoted from earlier work, collected in patent publication US20210196801A1, “Starting Dose of PTH Conjugates” (Ascendis Pharma Bone Diseases A/S, priority 2018, published 2021).
Like-named read-outs stand apart in the source and are kept apart here.

Assays:
[1] = not given; remark: listed apart in the source

Row | Compound | half-life (after IV administration) | half-life (after subcutaneous administration, due to prolonged absorption) [h] | half-life ([1]; IV) | half-life ([1]; after subcutaneous administration)
1 | CC[C@H](C)[C@H](NC(=O)[C@H](CCC(=O)O)NC(=O)[C@H](CO)NC(=O)[C@@H](NC(=O)[C@@H](N)CO)C(C)C)C(=O)N[C@@H](CCC(N)=O)C(=O)N[C@@H](CC(C)C)C(=O)N[C@@H](CCSC)C(=O)N[C@@H](Cc1cnc[nH]1)C(=O)N[C@@H](CC(N)=O)C(=O)N[C@@H](CC(C)C)C(=O)NCC(=O)N[C@@H](CCCCN)C(=O)N[C@@H](Cc1cnc[nH]1)C(=O)N[C@@H](CC(C)C)C(=O)N[C@@H](CC(N)=O)C(=O)N[C@@H](CO)C(=O)N[C@@H](CCSC)C(=O)N[C@@H](CCC(=O)O)C(=O)N[C@@H](CCCN=C(N)N)C(=O)N[C@H](C(=O)N[C@@H](CCC(=O)O)C(=O)N[C@@H](Cc1c[nH]c2ccccc12)C(=O)N[C@@H](CC(C)C)C(=O)N[C@@H](CCCN=C(N)N)C(=O)N[C@@H](CCCCN)C(=O)N[C@@H](CCCCN)C(=O)N[C@@H](CC(C)C)C(=O)N[C@@H](CCC(N)=O)C(=O)N[C@@H](CC(=O)O)C(=O)N[C@H](C(=O)N[C@@H](Cc1cnc[nH]1)C(=O)N[C@@H](CC(N)=O)C(=O)N[C@@H](Cc1ccccc1)C(=O)O)C(C)C)C(C)C [Teriparatide] | about 5 minutes | ~1 | – | –
2 | Natpara: PTH(1-84), approved for once-daily subcutaneous injection in patients with hypoparathyroidism | – | – | about 5 minutes | about 3 hours
